# Measured values from ChEMBL document CHEMBL5131559, “Discovery and Preclinical Profiling of GSK3839919, a Potent HIV-1 Allosteric Integrase Inhibitor” (ACS Med Chem Lett, 2022).
# Assays:
# [1] = Clearance in CD-1 mouse at 1 mg/kg, iv by LC-MS/MS analysis; format: ADME, organism-based; details: in vivo
# [2] = tested on: Human immunodeficiency virus 1; test: Antiviral activity against recombinant HIV1 NLRep-Rluc harbouring polymorphic T124/T125 integrase infected in human MT-2 cells assessed as inhibition of virus growth in presence of fetal bovine serum by measuring luciferase activity after 4 days; format: functional, organism-based; details: Human immunodeficiency virus 1, NLRep, MT2, 96 h
# [3] = tested on: Human immunodeficiency virus 1; test: Antiviral activity against recombinant HIV1 NLRep-Rluc harbouring polymorphic N124/A125 integrase infected in human MT-2 cells assessed as inhibition of virus growth in presence of fetal bovine serum by measuring luciferase activity after 4 days; format: functional, organism-based; details: Human immunodeficiency virus 1, NLRep, MT2, 96 h
# [4] = Cytotoxicity against human MT2 cells; format: toxicity, cell-based
# [5] = Clearance in cynomolgus monkey at 1 mg/kg, iv by LC-MS/MS analysis; format: ADME, organism-based, Macaca fascicularis; details: in vivo
# [6] = Clearance in Sprague-Dawley rat at 1 mg/kg, iv by LC-MS/MS analysis; format: ADME, organism-based; details: in vivo
# [7] = AUC (0 to infinity) in Sprague-Dawley rat at 5 mg/kg, po by LC-MS/MS analysis; format: ADME, organism-based; set-up: time infinity, dose 5 mg/kg, route po; details: in vivo
# [8] = Oral bioavailability in Sprague-Dawley rat at 5 mg/kg by LC-MS/MS analysis; format: ADME, organism-based; details: in vivo
# [9] = tested on: Human immunodeficiency virus 1; test: Antiviral activity against recombinant HIV1 NLRep-Rluc harbouring polymorphic A124/T125 integrase infected in human MT-2 cells assessed as inhibition of virus growth in presence of fetal bovine serum by measuring luciferase activity after 4 days; format: functional, organism-based; details: Human immunodeficiency virus 1, NLRep, MT2, 96 h
# [10] = tested on: Human immunodeficiency virus 1; test: Antiviral activity against recombinant HIV1 NLRep-Rluc harbouring polymorphic T124/A125 integrase infected in human MT-2 cells assessed as inhibition of virus growth in presence of fetal bovine serum by measuring luciferase activity after 4 days; format: functional, organism-based; details: Human immunodeficiency virus 1, NLRep, MT2, 96 h
# [11] = tested on: Human immunodeficiency virus 1; test: Antiviral activity against recombinant HIV1 NLRep-Rluc harbouring polymorphic N124/T125 integrase infected in human MT-2 cells assessed as inhibition of virus growth in presence of fetal bovine serum by measuring luciferase activity after 4 days; format: functional, organism-based; details: Human immunodeficiency virus 1, NLRep, MT2, 96 h
# [12] = tested on: Human immunodeficiency virus 1; test: Antiviral activity against recombinant HIV1 NLRep-Rluc harbouring polymorphic A124/A125 integrase infected in human MT-2 cells assessed as inhibition of virus growth in presence of fetal bovine serum by measuring luciferase activity after 4 days; format: functional, organism-based; details: Human immunodeficiency virus 1, NLRep, MT2, 96 h
# [13] = tested on: Human immunodeficiency virus 1; test: Antiviral activity against recombinant HIV1 NLRep-Rluc harbouring polymorphic T124/V125 integrase infected in human MT-2 cells assessed as inhibition of virus growth in presence of fetal bovine serum by measuring luciferase activity after 4 days; format: functional, organism-based; details: Human immunodeficiency virus 1, NLRep, MT2, 96 h
# [14] = AUC (0 to infinity) in CD-1 mouse at 5 mg/kg, po by LC-MS/MS analysis; format: ADME, organism-based; set-up: time infinity, dose 5 mg/kg, route po; details: in vivo
# [15] = Oral bioavailability in CD-1 mouse at 5 mg/kg by LC-MS/MS analysis; format: ADME, organism-based; details: in vivo
# [16] = Clearance in Beagle dog at 1 mg/kg, iv by LC-MS/MS analysis; format: ADME, organism-based, Canis lupus familiaris; details: in vivo
# [17] = AUC (0 to infinity) in Beagle dog at 2 mg/kg, po by LC-MS/MS analysis; format: ADME, organism-based, Canis lupus familiaris; set-up: time infinity, dose 2 mg/kg, route po; details: in vivo
# [18] = Oral bioavailability in Beagle dog at 2 mg/kg by LC-MS/MS analysis; format: ADME, organism-based, Canis lupus familiaris; details: in vivo
# [19] = AUC (0 to infinity) in cynomolgus monkey at 2 mg/kg, po by LC-MS/MS analysis; format: ADME, organism-based, Macaca fascicularis; set-up: time infinity, dose 2 mg/kg, route po; details: in vivo
# [20] = Oral bioavailability in cynomolgus monkey at 2 mg/kg by LC-MS/MS analysis; format: ADME, organism-based, Macaca fascicularis; details: in vivo
# [21] = Toxicity in human Huh-7 cells assessed as fold change in lipid droplet count at 10 uM incubated for 48 hrs by plate reader assay; format: cell-based; details: huh-7, 48 h
# [22] = Toxicity in rat Hepatoma cell line assessed as fold change in lipid droplet count at 10 uM incubated for 48 hrs by plate reader assay; format: cell-based
# [23] = Toxicity in human Huh-7 cells assessed as fold change in lipid droplet count at 20 uM incubated for 48 hrs by plate reader assay; format: cell-based; details: hepatoma cell line
# Huh-7 = test: Cytotoxicity against human Huh-7 cells at 40 to 80 uM; format: toxicity, cell-based; details: huh-7, 80 µM, dose 40-80 µM
# Hepatoma cell line = test: Cytotoxicity against rat Hepatoma cell line at 40 to 80 uM; format: toxicity, cell-based; details: dose 40-80 µM
# [24] = Cmax in rat at 50 mg/kg,po qd for 1 week; format: ADME, organism-based; set-up: time 1 weeks, dose 50 mg/kg, route po; details: in vivo
# [25] = Toxicity in rat assessed as hepatocellular vacuolation at 50 mg/kg,po for 1 week; format: organism-based; details: in vivo, 168 h, time 1 weeks
# [26] = Toxicity in rat assessed as increase in alkaline phosphatase level at 50 mg/kg,po for 1 week; format: organism-based; details: in vivo, 168 h, time 1 weeks
# [27] = Toxicity in dog assessed as hepatocellular vacuolation at 60 mg/kg,po for 1 week; format: organism-based, Canis lupus familiaris; details: in vivo, 168 h, time 1 weeks
# [28] = Toxicity in dog assessed as increase in alkaline phosphatase level at 60 mg/kg,po for 1 week; format: organism-based, Canis lupus familiaris; details: in vivo, 168 h, time 1 weeks
structure (smiles),measurement,setting,value
Cc1cccc(Cl)c1CN1CCc2cc(-c3cnc(C)c([C@H](OC(C)(C)C)C(=O)O)c3N3CCC(C)(C)CC3)ccc2C1,clearance,[1],1 mL/min/kg
same,EC50,[2],2.8 nM
same,EC50,[3],5.7 nM
same,CC50,[4],19500 nM
same,clearance,[5],1.7 mL/min/kg
same,clearance,[6],3.8 mL/min/kg
same,AUC(0-inf),[7],21.6 µM·h
same,bioavailability,[8],71%
same,EC50,[9],4.5 nM
same,EC50,[10],5 nM
same,EC50,[11],3.1 nM
same,EC50,[12],4.6 nM
same,EC50,[13],1.6 nM
same,AUC(0-inf),[14],43.1 µM·h
same,bioavailability,[15],47%
same,clearance,[16],2.2 mL/min/kg
same,AUC(0-inf),[17],24.2 µM·h
same,bioavailability,[18],89%
same,AUC(0-inf),[19],10.7 µM·h
same,bioavailability,[20],51%
same,fold change (FC),[21],1.2
same,fold change (FC),[22],1.8
same,fold change (FC),[23],3.7
same,Activity,Huh-7,Toxic
same,Activity,Hepatoma cell line,Toxic
same,Cmax,[24],488 µM
same,Activity,[25],Toxic
same,Activity,[26],Toxic
same,Activity,[27],Toxic
same,Activity,[28],Toxic
